# In patent US20090068126A1, “Composition for surface photoprotection” (priority 2004, published 2009):
# Key:
# [1] = test system: short hair line albino Guinea pigs; assay: Phototoxicity in vivo; design: species or system guinea pig; conditions: 0.1 g %, only in the irradiated area
# Experimental: The tests are accomplished in short hair line albino Guinea pigs (n=4). Twenty-four hours before the application of the test substance to 5% [tween/ethanol/water (1:1:10)], the animals dorsal portion hair are chemically removed. Four application sites are chosen, at random: 2 areas for the test substance and other 2 for the methoxypsoralen phototoxic standard at 0.1 g %, following by the UVA radiation exposition, and a control area is protected from the light. After 24 and 48 hours, the observations are made as for the erythema edema formation (AGÊNCIA NACIONAL DE VIGILÂNCIA SANITÁRIA-Brazil, Guia para avaliaçãa de segurança de produtos cosméticos. 2003.; Freitas, Z. M. F., I Ax, P. A., Dellamora-Ortiz, G. M., Santos, E. P., Gonçalves, J. C. S., 2000, S.T.P Pharma Sciences, 10 (3) 239-242; Dinardo, J. C., Wolf, B. A., Morris, W. E., Tenenbaum, S., Schnetzinger, R. W., 1985, J. Soc. Cosmet. Chem., 36, 425-433).
# [2] = test system: Saccharomyces cerevisiae yeast, wild type strain D273-10B; assay: Phototoxicity test in Saccharomyces cerevisiae yeast (in vitro); assay type: cell-based
# Excerpt: The method applied was used by Freitas (Freitas, Z. M. F., I Ax, P. A., Dellamora-Ortiz, G. M., Santos, E. P., Gonçalves, J. C. S., S.T.P Pharma Sciences, 2000, 10 (3): 239-242) for the Saccharomyces cerevisiae yeast use, wild type strain D273-10B, at room temperature, which dense cell layer is not sensitive to the ultraviolet radiation among 320-390 nm (UVA), besides being innocuous.
# The yeast growth was in a YPD medium, constituted by yeast extract (1%), peptone (2%), anhydrous glucose (2%), agar (2%). […] The studied substances were applied in 1 g % concentration in Wharman no. 1 sterile filter paper disks, and fixed on the surface of culture media plates. A S. cerevisiae suspension was prepared in sterilized water (10 mL). Aliquots of 0.2 mL were applied and spread in the culture plates using a glass loop. Two plates were prepared for each sample. After seeding and applying the samples, one plate was allowed to grow under two UVA lamps (320-390 nm). A control plate was grown in the dark. […]
smiles,measurement,setting,value
COc1c2occc2cc2ccc(=O)oc12 [8-methoxypsoralen],erythema degree,[1]; 24 hours,1
same,erythema degree,[1]; 48 hours,2
same,growth inhibition halo,"[2]; 0.1 g % in ethanol, plates in the light and in the dark",presented growth inhibition halo in the light
same,phototoxic answer in the in vitro phototoxicity test,[2]; irradiated plate and plate with light absence,non-phototoxic
